Source: US8778975B2, “Helicobacter pylori eradicating agent having inhibitory activity on gastric acid secretion” (Link Geonomics, Inc., priority 2006, dated 2014)

Assays:
[1] = Stability test in acidic hydrochloric acid solution (pH 2), residual ratio by HPLC; assay type: physicochemical; conditions: for Residual ratio at pH 2: pH 2 HCl, 37° C.; for Stability in acid (residual ratio at pH = 2: %): Table 8 summary, time not stated
Experimental: A test for the stability of thioether compounds (hereinafter, referred to SH-form) and sulfoxide compounds (hereinafter, referred to SO-form) at pH 2.0 was carried out. (Method) Each of the specimens produced in Examples 1 to 3 and Reference Examples 6 to 8 (sulfinyl products of Examples 1 to 3) was maintained in a solution adjusted to pH 2 with 0.5 or 1.0 mmol/L HCl (37° C.) for a predetermined time period. Subsequently, the solution was adjusted to pH 8 with triethylamine, and then an HPLC analysis was performed to calculate the residual ratio.

[2] = tested on: Klebsiella pneumonia (ATCC 10031); assay: Antibacterial test (MIC), Gram-negative bacteria; assay type: cell-based; conditions: Klebsiella pneumoniae, ATCC10031, read-out: MIC
Source text: As for the Gram-negative bacteria, E. coli (ATCC 10536, ATCC 25922), Klebsiella pneumonia (ATCC 10031), Proteus vulgaris (ATCC 13315), Pseudomonas aeruginosa (ATCC 9027), and Salmonella typhimurium (ATCC 13311) were used, and as for the Gram-positive bacteria, Staphylococcus aureus, MRSA (ATCC 33591), Staphylococcus epidermidis (ATCC 12228), Streptococcus pneumonia (ATCC 6301), Mycobacterium ranae (ATCC 110), and Enterococcus faecalis (VRE, ATCC 51575) were used. The various bacteria were cultured at 37° C. for 20 to 48 hours by conventional methods, and the minimum growth inhibitory concentration (MIC, μg/ml) was determined. Each of the specimens was dissolved in a 1% DMSO solution. Furthermore, amoxicillin, clarithromycin and gentamycin were used as control drugs of antibacterial substance.

Compound	Residual ratio at pH 2 ([1]; 0 min)	Residual ratio at pH 2 ([1]; 30 min)	Residual ratio at pH 2 ([1]; 2 hours)	Stability in acid (residual ratio at pH = 2: %) [1]	MIC [2]
CCCCCOc1ccnc(CSc2nc3ccccc3[nH]2)c1C [Example 1, 2-[(4-n-pentyloxy-3-methylpyridin-2-yl)-methylthio]-1H-benzimidazole]	100%	100%	100%	100%	> 100 µg/mL
CCCCCCOc1ccnc(CSc2nc3ccccc3[nH]2)c1C [Example 2, 2-[(4-n-hexyloxy-3-methylpyridin-2-yl)-methylthio]-1H-benzimidazole]	100%	100%	100%	100%	> 100 µg/mL
CCCCCCCOc1ccnc(CSc2nc3ccccc3[nH]2)c1C [Example 3, 2-[(4-n-heptyloxy-3-methylpyridin-2-yl)-methylthio]-1H-benzimidazole]	100%	100%	100%	100%	> 100 µg/mL
